The values that follow come from publication PMC4857087, “A potential adjuvant chemotherapeutics, 18β-glycyrrhetinic acid, inhibits renal tubular epithelial cells apoptosis via enhancing BMP-7 epigenetically through targeting HDAC2” (Scientific Reports, 2016).

The Kd is the constant that tells how readily two partners part at equilibrium. Lower therefore signals tighter binding. One may read the IC50 as the concentration that gives 50% inhibition. Read a low IC50 as greater potency.

Assay [1] deals with HDAC2 (Homo sapiens, UniProt Q92769). Kind of assay: SPR (Biacore T200, HDAC2 immobilized on CM5 chip, […] Langmuir fit). The class given is binding. In general terms: SPR reads the build-up and loss of mass on a sensor chip optically.
HDAC2, sequence (Q92769 whole entry): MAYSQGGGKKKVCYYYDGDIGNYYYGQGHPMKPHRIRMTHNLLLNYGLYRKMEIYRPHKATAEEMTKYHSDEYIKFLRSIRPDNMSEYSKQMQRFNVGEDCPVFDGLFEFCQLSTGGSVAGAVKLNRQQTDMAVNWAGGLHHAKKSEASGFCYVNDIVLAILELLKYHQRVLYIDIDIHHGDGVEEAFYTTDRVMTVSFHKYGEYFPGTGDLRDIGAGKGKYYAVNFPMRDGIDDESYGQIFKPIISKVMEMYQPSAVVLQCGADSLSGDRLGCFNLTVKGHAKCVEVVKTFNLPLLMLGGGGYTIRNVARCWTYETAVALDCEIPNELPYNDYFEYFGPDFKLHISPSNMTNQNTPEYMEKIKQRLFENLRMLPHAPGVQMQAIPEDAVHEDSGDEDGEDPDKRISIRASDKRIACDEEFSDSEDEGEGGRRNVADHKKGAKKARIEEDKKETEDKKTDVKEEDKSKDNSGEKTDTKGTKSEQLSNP
Assay [2] has as its system HK2. Briefly: cells. Further details: species or system mTEC; antiproliferative activity on renal tubular epithelial cells, 48 h. Conditions: Homo sapiens, HK-2, 48 h. On the procedure:
GA could be transformed into 18β-glycyrrhetinic acid (18βGA) via biotransformation. At first, compounds GA and 18βGA were evaluated for their antiproliferative activities against mTEC and HK2 cell lines. The cells were allowed to proliferate in the presence of tested material for 48 h, and the results were reported in terms of IC50 values (Supplementary Table S2). […] Thus we chose GA 0.05, 0.1, 0.2, 0.4, 0.8 mM and 18βGA 2.5, 5, 10, 20, 30 μM to further evaluate the roles on KIM-1. […] Thus, 18βGA was chosen to discuss the mechanisms in AKI induced by CP. Cisplatin (CP), glycyrrhizic acid ammonium salt (GA), 18β-glycyrrhetinic acid (18βGA), Dimethyl sulfoxide (DMSO), MTT (3-(4, 5-dimethylthiazol-2-yl)-2, 5-diphenyltetrazoliumbromide) and all other chemicals were obtained from Sigma-Aldrich (St. Louis, MO, USA). BMP-7, KIM-1, Bcl-2 and Bax antibodies were purchased from Santa Cruz (CA, USA). β-actin antibody and secondary antibodies for goat anti-rabbit IgG HRP and rabbit anti-goat IgG HRP were purchased from Bioworld Technology (Nanjing, China). Creatinine (Cr) and Blood Urea Nitrogen (BUN) assay kit were purchased from Siemens (NY, USA).

Regarding `CC1(C)[C@@H](O)CC[C@]2(C)[C@H]3C(=O)C=C4[C@@H]5C[C@@](C)(C(=O)O)CC[C@]5(C)CC[C@@]4(C)[C@]3(C)CC[C@@H]12` [18βGA, 18β-glycyrrhetinic acid], the Kd in assay [1] was determined as 0.613 µM. In assay [2], this compound yielded an IC50 of 0.073 mM.
